This passage reports Ki results from patent EP0195496A2, “Use of xanthines in the treatment of proliferative skin disease” (BEECHAM GROUP PLC, priority 1985, dated 1986).

Each structure is given as a SMILES string.

One assay addresses cyclic AMP phosphodierterase. In words: cyclic AMP phosphodiesterase activity in rat gastrocnemius muscle homogenates (Dixon plot). In kind it is biochemical. To be noted: compounds of formula (I); homogenates of rat gastocnemius muscle; 0.31 uM cyclic AMP as substrate; Dixon plot extrapolation; read-out: Apparent Ki value. As to the method: The activity of cyclic AMP phosphodierterase in homogenates of rat gastocnemius muscle was measured in the presence of various concentrations of compounds of formulae (I), (II), (III), (IV) or (V) using 0.31 uM cyclic AMP as substration. The reciprocal of the reaction rate was plotted on the y axis against the concentration of each compound on the x axis (Dixon plot). The apparent Ki value was estimated by extrapolating the steeper linear portion of the Dixon plot to the x axis and obtaining the negative intercept on the x axis.
Regarding `CCCCn1c(=O)c2c(ncn2C(C)CC(C)=O)n(CCCC)c1=O` (centres unmarked), the Ki is 17.5 µM.
The same measure, in the same setting: the result for `CC(=O)Cn1cnc2c1c(=O)n(C(C)C)c(=O)n2C(C)C` [1,3-di-iso-propyl-7-(2-oxopropyl) xanthine] reads 6.1 µM; that for `CCCCn1c(=O)c2c(ncn2CC(C)=O)n(CCC)c1=O` [formula (I) R^1=C4H9 R^2=C3H7 X=-CH2-, 1-n-butyl 3-n-propyl-7-(2-oxopropyl) xanthine], 2 µM; that for `CCCCn1c(=O)c2c(ncn2CCC(C)=O)n(CCCC)c1=O` [formula (I) R^1=C4H9 R^2=C4H9 X=-(CH2)2-, 1,3-di-n-butyl-7-(3-oxobutyl) xanthine], 25 µM.
In the case of `CCCCn1c(=O)c2c(ncn2CC(C)=O)n(CC)c1=O` [formula (I) R^1=C4H9 R^2=C2H5 X=-CH2-], the Ki is 21 µM.
As to `CCCCn1c(=O)c2c(ncn2CCCCC(C)=O)n(CCCC)c1=O` [formula (I) R^1=C4H9 R^2=C4H9 X=-(CH2)4-, 1,3-di-n-butyl-7-(5-oxohexyl)xanthine], the Ki is 14.1 µM.
Same read-out and setting: the result for `CCCCn1c(=O)c2c(ncn2C(C)C(C)=O)n(CC)c1=O` (centres unmarked) reads 24.8 µM; that for `CCCCn1c(=O)c2c(ncn2CCC(C)=O)n(CC)c1=O` [formula (I) R^1=C4H9 R^2=C2H5 X=-(CH2)2-, 1-n-butyl 3-ethyl-7-(3-oxobutyl) xanthine], 12 µM.
Same read-out and setting: the result for `CCCn1c(=O)c2c(ncn2CCC(C)=O)n(CCC)c1=O` [formula (I) R^1=C3H7 R^2=C3H7 X=-(CH2)2-] reads 27 µM; that for `CCCCn1c(=O)c2c(ncn2CC(C)=O)n(CCCC)c1=O` [formula (I) R^1=C4H9 R^2=C4H9 X=-CH2-, 1,3-di-n-butyl-7-(2-oxopropyl) xanthine], 3.3 µM.
Same read-out and setting: under `CCCCn1c(=O)c2c(ncn2CCCC(C)=O)n(CCCC)c1=O` [formula (I) R^1=C4H9 R^2=C4H9 X=-(CH2)3-] stands 39 µM; under `CCCCn1c(=O)c2c(ncn2C(C)C(C)=O)n(CCCC)c1=O` (centres unmarked), 30.1 µM.

The assay is the same for the next values; noted with them: compounds of formula (II); homogenates of rat gastocnemius muscle; 0.31 uM cyclic AMP as substrate; Dixon plot extrapolation; read-out: Apparent Ki Value.
For `CCCCn1c(=O)c2c(ncn2CC(C)=O)n(CCCC)c1=S` [1,3-di-n-butyl-7-(2-oxopropyl)-2-thioxanthine], the Ki was 2.5 µM.
Same read-out and setting: the result for `CCCCn1c(=S)c2c(ncn2CCC(C)=O)n(CC)c1=O` reads 22.9 µM.
Consider `CCCCn1c(=S)c2c(ncn2CC(C)=O)n(CC)c1=O`, for which the Ki is 41 µM.

Staying with this assay, now noted: compounds of formula (III); homogenates of rat gastocnemius muscle; 0.31 uM cyclic AMP as substrate; Dixon plot extrapolation; read-out: Apparent Ki value.
Consider `CCCCn1c(=O)c2c(ncn2CC2(C)OCCO2)n(CC)c1=O`, for which the Ki was 45 µM.
Still for that read-out and setting: under `CCn1c(=O)c2c(ncn2CC2(C)OCCO2)n(CC)c1=O` stands 73 µM; under `CCCCn1c(=O)c2c(ncn2CC2(C)OCCO2)n(CCCC)c1=O` [2-methyl-2-[(1,3-di-n-butylxanthin-7-yl)methyl]-1,3-di oxolane], 29 µM.
Same read-out and setting: the result for `CCCCn1c(=O)c2c(ncn2CC(C)(OC)OC)n(CCCC)c1=O` [1,3-di-n-butylxanthin-7-yl propan-2-one, dimethyl ketal] reads 27 µM.

The assay is the same for the next values; noted with them: compounds of formula (V); homogenates of rat gastocnemius muscle; 0.31 uM cyclic AMP as substrate; Dixon plot extrapolation; read-out: Apparent Ki value.
As to `CCCCn1c(=O)n(CCCCC(C)=O)c(=O)c2c1ncn2CC(C)=O` [formula (V) R^12=C4H9, 1-(5-oxohexyl)-3-n-butyl-7-(2-oxopropyl) xanthine], the Ki was 3.9 µM.
